Results from PubChem BioAssay AID743395 (Broad Institute, 2014).

Test system: HepG2 viability, CellTiter-Glo ATP luminescence, 72 h
Test: viability loss in human hepatoma cells – cell-based, CellTiter-Glo luminescence, cherry-pick, set 2, cytotoxicity control, dose response (AID 743395)

Structure (SMILES)	AC35 [µM]
O=C(NCc1ccccc1)C1Cc2c(-c3cccc(F)c3)ccnc2O1 (centres undefined)	22.1
CC(=NNC(=S)Nc1ccc(C)cc1)c1ccccn1	0.123
Cc1cccc(N(C)C(=O)c2cc3c(=O)[nH]c4ccc(C)cc4c3s2)c1	4.26
O=C1C=CC(O)(c2cc(=O)c3c(O)cc(O)cc3o2)C=C1	8.15
O=[N+]([O-])c1ccc(N=Nc2c(Cl)cc(O)cc2Cl)cc1	4.24
Cc1ccc2cc(CN(CC3CCCO3)C(=S)Nc3ccccc3)c(=O)[nH]c2c1C (centres undefined)	14.7
O=Nc1ccc(O)c2ncccc12	5.57
CN1C(=O)NC(=O)C2(CCCC2)C1=O	9.42
O=c1cc(-c2ccc(O)c(O)c2)oc2cc(O)cc(O)c12	19
Cc1ccc(-c2ccc3c(c2)O[C@H](CN(C)Cc2ccccn2)[C@@H](C)CN([C@@H](C)CO)S3(=O)=O)cc1	16.8
COc1ccc(-c2ccc3c(c2)[C@H]2[C@H](CCN2S(=O)(=O)c2ccc(OC)cc2)[C@@H](CO)N3)cc1	14.5
CCC1=C(CC2NCCc3ccccc32)CC2c3cc(OC)c(OC)cc3CCN2C1 (centres undefined)	18.2
CC1=Nc2cc(C(=O)NCC3CCCO3)ccc2Sc2ccc(Br)cc21 (centres undefined)	19.4
COc1ccc(C(=O)c2ccc(N(C)C)cc2)c(OC)c1	14.9
N#CC1=C(N)Oc2c(ccc3cccnc23)C1c1ccccc1 (centres undefined)	6.64
COc1ccccc1Nc1nc(-c2sc(NC(=O)C(C)(C)C)nc2C)cs1	15.7
Cc1ccnc2c1ccc1cccnc12	2.98
COc1cc(C(=O)N/N=C(\c2ccccc2)c2ccccn2)cc(OC)c1OC	1.46
COc1ccc(S(=O)(=O)Nc2ccc3c(c2)C(=O)N([C@H](C)CO)C[C@@H](C)[C@@H](CN(C)Cc2ccc(Cl)c(Cl)c2)O3)cc1	14.1
CCN1/C(=C\c2ccc3cc(C)ccc3[n+]2CC)Sc2cc(C)c(C)cc21	3.19
Cn1cc(C(=O)N/N=C/c2ccc3c(c2)OCO3)c2ccccc21	11.2
COc1ccc(OC)c(-c2cc(-c3cccnc3)nc(N)c2C#N)c1	10.6

Structure (SMILES)	AC35 [µM]
COc1ccc(C2CC(c3cccc(Br)c3)=NN2c2ccc(S(N)(=O)=O)cc2)cc1 (centres undefined)	18.1
CC(=O)N1CCc2cc(S(=O)(=O)N3c4ccccc4CC3C)ccc21 (centres undefined)	10.2
CC(=O)Nc1sc2c(c1-c1nc3ccccc3s1)CN(C(C)C)CC2	3.4
N#Cc1ccc(-c2cccs2)nc1SCc1cccnc1	0.671
Nc1c(C(=O)c2ccco2)oc2ccccc12	15.8
CC1(Cc2ccc(F)cc2)C(=O)Nc2c(Cl)ccc(Cl)c21 (centres undefined)	12
O=C1CN(S(=O)(=O)Cc2ccccc2)C[C@@H]2[C@@H](c3ccc(C#Cc4cccc(F)c4)cc3)[C@@H](CO)N12	7.38
CCc1ccc(-c2nc(C(N)=O)c3[nH]c(=O)n(-c4ccccc4OC)c3n2)cc1	9.05
COc1cc2c(cc1OC)C(C)N(C(=O)Nc1cc(C)cc(C)c1)CC2 (centres undefined)	7.81
COc1cc(/C=C(\C#N)c2nc3ccccc3[nH]2)cc(OC)c1O	17.2
Cc1ccc(S(=O)(=O)NCCCNS(=O)(=O)c2ccc(C)cc2)cc1	20
COc1ccc(-c2ccc3c(c2)[C@H]2[C@H](CCN2S(=O)(=O)c2ccc(OC)cc2)[C@@H](CO)N3C)cc1	18.2
COc1cc(OC)cc(-c2nc3ccccc3c(=O)n2OC(=O)c2ccc(C)c(C)c2)c1	21.5
Cc1c(C2Nc3ccccc3C2C)[nH]c2ccccc12 (centres undefined)	6.86
Cc1cc(N/N=C/c2ccccc2O)c2ccccc2n1	19.7
Cc1nn(S(=O)(=O)c2ccc(Cl)cc2)c(C)c1Sc1ccc([N+](=O)[O-])cc1	21.8
CC(=O)c1cccc(-c2ccnc3c2CC(C(=O)NCc2ccco2)O3)c1 (centres undefined)	6.09
O=C(N/N=C\c1c(O)ccc2ccccc12)c1cncc(Br)c1	1.18
Cc1ccc2c(c1)CCCN2C(=O)CCc1nc2ccccc2c(=O)[nH]1	7.93
Cc1ccc(-c2csc3ncn(CC#N)c(=O)c23)cc1C	17.9
O=C1c2cccc(NCCCNCCO)c2C(=O)c2cccc(NCCCNCCO)c21	3.61
Clc1ccc(SCc2cc(N3CCOCC3)nc(-c3ccccn3)n2)cc1	9
